23 compounds from patent US11117903B2, “Pyridine derivatives” (Hoffmann-La Roche Inc., priority 2017, dated 2021) can be followed below.

Where two headings read alike, the source gives them in different places.

What is called EC50 is the concentration at which the effect is half-maximal.

For the assay, the target named is T1, human CB2 receptors (Homo sapiens, UniProt P34972).
T1 construct: expressed in transfected cells; host or cells: CHO cells
Kind of assay: cAMP assay human CB2. In kind it is cell-based. Particulars: for Percent relative efficacy compared to the reference agonist CP55940 for which this value is set to +100%: negative values = inverse agonists, CP55940 = +100%. How it is done: The growth medium was exchanged with Krebs Ringer Bicarbonate buffer with 1 mM IBMX and incubated at 30° C. for 30 min. Compounds were added to a final assay volume of 100 μl and incubated for 30 min at 30° C. […] The time-resolved energy transfer is measured by a TRF reader (Evotec Technologies GmbH), equipped with a ND:YAG laser as excitation source. The plate is measured twice with the excitation at 355 nm and at the emission with a delay of 100 ns and a gate of 100 ns, total exposure time 10s at 730 (bandwidth 30 nm) or 645 nm (bandwidth 75 nm), respectively.
EC50 values were determined using Activity Base analysis (ID Business Solution, Limited).
Background: cAMP levels reflect the balance of adenylyl cyclase and phosphodiesterase activity.

The mark [1] stands for this setting: CHO cells expressing human CB2 receptors, read-out: cAMP assay human CB2 EC50.

T1 sequence (P34972 whole entry): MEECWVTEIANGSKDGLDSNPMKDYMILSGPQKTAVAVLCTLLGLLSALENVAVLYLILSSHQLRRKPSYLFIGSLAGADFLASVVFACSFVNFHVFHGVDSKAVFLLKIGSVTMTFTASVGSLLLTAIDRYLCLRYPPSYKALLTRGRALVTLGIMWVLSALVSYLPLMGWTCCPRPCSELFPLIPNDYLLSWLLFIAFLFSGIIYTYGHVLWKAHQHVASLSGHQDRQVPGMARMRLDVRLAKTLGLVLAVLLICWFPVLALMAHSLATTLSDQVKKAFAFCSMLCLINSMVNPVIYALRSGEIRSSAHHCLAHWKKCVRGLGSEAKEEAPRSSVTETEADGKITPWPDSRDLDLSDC

For the compound `O=C(N[C@@H]1CCCC[C@@H]1O)c1cc(-c2ccc(Cl)cc2)c(OCC2CC2)cn1` [Example 2, 4-(4-Chlorophenyl)-5-(cyclopropylmethoxy)-N-[(1R,2S)-2-hydroxycyclohexyl]pyridine-2-carboxamide], the EC50 came out at 0.257 µM and the “Percent relative efficacy compared to the reference agonist CP55940 for which this value is set to +100%” value (“Percent relative efficacy … to +100%” below) is −90.6%.

`Cc1nc([C@](C)(CC2CC2)NC(=O)c2cc(-c3ccc(F)nc3)c(OCc3ccccc3)cn2)no1` [Example 23, N-[(2S)-1-Cyclopropyl-2-(5-methyl-1,2,4-oxadiazol-3-yl)propan-2-yl]-4-(6-fluoropyridin-3-yl)-5-phenylmethoxypyridine-2-carboxamide]: the EC50 is 1.03 µM and the “Percent relative efficacy … to +100%” value is reported as −87.7%.

For the compound `CNC(=O)[C@@H](CC(C)C)NC(=O)c1cc(OCC2CC2)c(Cl)cn1` [Example 12, 5-Chloro-4-(cyclopropylmethoxy)-N-[(2R)-4-methyl-1-(methylamino)-1-oxopentan-2-yl]pyridine-2-carboxamide], it took 3.23 µM to reach a half-maximal effect (EC50) and the “Percent relative efficacy … to +100%” value was −40.1%.

For `O=C(N[C@H]1CCCC[C@H]1O)c1cc(-c2ccc(Cl)cc2)c(OCC2CC2)cn1` [Example 3, 4-(4-Chlorophenyl)-5-(cyclopropylmethoxy)-N-[(1 S,2R)-2-hydroxycyclohexyl]pyridine-2-carboxamide], the EC50 stood at 0.0466 µM and the “Percent relative efficacy … to +100%” value is −85.1%.

For `CCC(CC)(NC(=O)c1cc(-c2ccc(Cl)c(Cl)c2)c(OCC2CC2)cn1)C(=O)OC` [Example 5, Methyl 2-[[5-(cyclopropylmethoxy)-4-(3,4-dichlorophenyl)pyridine-2-carbonyl]amino]-2-ethylbutanoate], the EC50 is 0.0069 µM and the “Percent relative efficacy … to +100%” value is −128.6%.

Turning to `CC(C)(C)OC(=O)N1CC[C@@H](Oc2cc(-c3noc(C(C)(C)C)n3)ncc2C2CC2)C1` [Example 16, tert-Butyl (3R)-3-[2-(5-tert-butyl-1,2,4-oxadiazol-3-yl)-5-cyclopropylpyridin-4-yl]oxypyrrolidine-1-carboxylate], the EC50 came out at 0.315 µM and the “Percent relative efficacy … to +100%” value was −103.1%.

In the case of `O=C(N[C@@H](c1ccccn1)C(F)(F)F)c1cc(OCC2CC2)c(Cl)cn1` [Example 9, (−) 5-Chloro-4-(cyclopropylmethoxy)-N-[2,2,2-trifluoro-1-pyridin-2-ylethyl]pyridine-2-carboxamide], a half-maximal effect (EC50) was put at 0.296 µM and the “Percent relative efficacy … to +100%” value was −114.7%.

In the case of `CC(C)(C)OC(=O)N1CCC[C@H]1COc1cc(-c2noc(C(C)(C)C)n2)ncc1C1CC1` [Example 15, tert-Butyl (2S)-2-[[2-(5-tert-butyl-1,2,4-oxadiazol-3-yl)-5-cyclopropylpyridin-4-yl]oxymethyl]pyrrolidine-1-carboxylate], the EC50 stood at 1.51 µM and the “Percent relative efficacy … to +100%” value is −75.2%.

For `CNC(=O)[C@H](CC(C)C)NC(=O)c1cc(OCC2CC2)c(Cl)cn1` [Example 11, 5-Chloro-4-(cyclopropylmethoxy)-N-[(2S)-4-methyl-1-(methylamino)-1-oxopentan-2-yl]pyridine-2-carboxamide], the EC50 is 0.181 µM and the “Percent relative efficacy … to +100%” value is −28.5%.

Regarding `CCOC(=O)C(CC)(CC)NC(=O)c1cc(OCC2(C)COC2)c(C2CC2)cn1` [Example 19, Ethyl 2-[[5-cyclopropyl-4-[(3-methyloxetan-3-yl)methoxy]pyridine-2-carbonyl]amino]-2-ethylbutanoate], the EC50 was 0.148 µM and the “Percent relative efficacy … to +100%” value worked out at 13%.

On to `CC(C)(C)c1nc(-c2cc(OCC3CC3)c(N3CC4(COC4)C3)cn2)no1` [Example 14, 6-[6-(5-tert-Butyl-1,2,4-oxadiazol-3-yl)-4-(cyclopropylmethoxy)pyridin-3-yl]-2-oxa-6-azaspiro[3.3]heptane], for which a half-maximal response (EC50) required 0.0367 µM and the “Percent relative efficacy … to +100%” value was −65.9%.

In the case of `CCC(CC)(NC(=O)c1cc(-c2ccc(Cl)cc2)c(OCC2CC2)cn1)C(=O)OC` [Example 4, Methyl 2-[[4-(4-chlorophenyl)-5-(cyclopropylmethoxy)pyridine-2-carbonyl]amino]-2-ethylbutanoate], the EC50 was 0.0144 µM and the “Percent relative efficacy … to +100%” value is given as −70.5%.

As for `O=C(N[C@@H](CO)c1ccccc1)c1cc(OCC2CC2)c(Cl)cn1` [Example 7, 5-Chloro-4-(cyclopropylmethoxy)-N-[(1R)-2-hydroxy-1-phenylethyl]pyridine-2-carboxamide], the EC50 was determined as 0.497 µM and the “Percent relative efficacy … to +100%” value is recorded as −41.7%.

With `Cc1nc(C(C)(CC2CC2)NC(=O)c2cc(OCC3(C)CC3(F)F)c(Cl)cn2)no1` (stereo not shown) [Example 20, 5-Chloro-N-[1-cyclopropyl-2-(5-methyl-1,2,4-oxadiazol-3-yl)propan-2-yl]-4-[(2,2-difluoro-1-methylcyclopropyl)methoxy]pyridine-2-carboxamide], the EC50 was 0.42 µM and the “Percent relative efficacy … to +100%” value was −150.8%.

For the compound `CC(C)(C)c1nc(-c2cc(OCc3cccc(S(C)(=O)=O)c3)c(C3CC3)cn2)no1` [Example 17, 5-tert-Butyl-3-[5-cyclopropyl-4-[(3-methylsulfonylphenyl)methoxy]pyridin-2-yl]-1,2,4-oxadiazole], the “Percent relative efficacy … to +100%” value was −49.9%. Moreover, the EC50 under setting [1] was 2.01 µM.

Take `CC(CC(N)=O)(NC(=O)c1cc(OCc2ccc(F)cn2)c(C2CC2)cn1)C1CC1` (stereo not shown) [Example 22, N-(4-Amino-2-cyclopropyl-4-oxobutan-2-yl)-5-cyclopropyl-4-[(5-fluoropyridin-2-yl)methoxy]pyridine-2-carboxamide]: it took 0.0471 µM to reach a half-maximal effect (EC50) and the “Percent relative efficacy … to +100%” value is reported as −78.4%.

For `CNC(=O)[C@@H](NC(=O)c1cc(OCC2CC2)c(Cl)cn1)C(C)(C)C` [Example 8, 5-Chloro-4-(cyclopropylmethoxy)-N-[(2S)-3,3-dimethyl-1-(methylamino)-1-oxobutan-2-yl]pyridine-2-carboxamide], the half-maximal effective concentration (EC50) was 0.0044 µM and the “Percent relative efficacy … to +100%” value is recorded as −141.9%.

For `CNC(=O)[C@@H](NC(=O)c1cc(OCC2(C)COC2)c(C2CC2)cn1)C(C)(C)C` [Example 13, 5-Cyclopropyl-N-[(2S)-3,3-dimethyl-1-(methylamino)-1-oxobutan-2-yl]-4-[(3-methyloxetan-3-yl)methoxy]pyridine-2-carboxamide], the “Percent relative efficacy … to +100%” value is −158.8%. Moreover, the EC50 under setting [1] came to 0.0261 µM.

Take `O=C(N[C@H](c1cccnc1)C(F)(F)F)c1cc(OCC2CC2)c(Cl)cn1` [Example 10, 5-Chloro-4-(cyclopropylmethoxy)-N-[(1R)-2,2,2-trifluoro-1-pyridin-3-ylethyl]pyridine-2-carboxamide]: the response was half-maximal at 1.56 µM (EC50) and the “Percent relative efficacy … to +100%” value is listed as −36.8%.

For the compound `CC(C)C[C@@H](CO)NC(=O)c1cc(-c2ccc(Cl)cc2Cl)c(OCC2CC2)cn1` [Example 1, 5-(Cyclopropylmethoxy)-4-(2,4-dichlorophenyl)-N-[(2S)-1-hydroxy-4-methylpentan-2-yl]pyridine-2-carboxamide], the EC50 is 0.0152 µM and the “Percent relative efficacy … to +100%” value is −40.1%.

`Cc1nnc(C(C)(NC(=O)c2cc(OCC(F)(F)F)c(C3CC3)cn2)C2CNC2)o1` (stereo not shown) [Example 18, N-[1-(azetidin-3-yl)-1-(5-methyl-1,3,4-oxadiazol-2-yl)ethyl]-5-cyclopropyl-4-(2,2,2-trifluoroethoxy)pyridine-2-carboxamide]: the “Percent relative efficacy … to +100%” value is reported as −48.7%. Moreover, the EC50 under setting [1] was 7.21 µM.

As to `CO[C@H]1CCCC[C@H]1NC(=O)c1cc(-c2ccc(Cl)cc2)c(OCC2CC2)cn1` [Example 6, 4-(4-chlorophenyl)-5-(cyclopropylmethoxy)-N-[(1R,2S)-2-methoxycyclohexyl]pyridine-2-carboxamide], a half-maximal response (EC50) required 0.124 µM and the “Percent relative efficacy … to +100%” value is −102.9%.

As for `Cc1nc(C(C)(CC2CC2)NC(=O)c2cc(On3nnc4ccccc43)c(C(F)(F)F)cn2)no1` (stereo not shown) [Example 21, 4-(Benzotriazol-1-yloxy)-N-[1-cyclopropyl-2-(5-methyl-1,2,4-oxadiazol-3-yl)propan-2-yl]-5-(trifluoromethyl)pyridine-2-carboxamide], the EC50 is 0.087 µM and the “Percent relative efficacy … to +100%” value was −147.5%.
